Data taken from patent US20060036073A1, “Neurotrophic and neuroprotective peptides” (priority 2002, published 2006).
Where a SMILES comes first, the peptide text is derived from it. Where no end group is shown, it is not given here.

Key:
[1] = tested on: cortical neurons that are obtained from chicken embryos; experiment: Summary of the screening over all neuroprotection assays; type: cell-based; settings: for Active in: (number of assays): Table 2 summary
Protocol: Since the targets of the therapy with the peptides presented according to the invention are various neurodegenerative diseases, different model systems for detecting the biological activity of the peptides according to the invention in the case of neurodegenerative diseases were used. Later, the individually used model systems and the results thus achieved are described. […] That is to say, the implementation of the tests was carried out on different days with different cell preparations and by different individuals. For some peptides, two numbers were issued (#1=#23 or #6=#35 or #7=#43), but the results with these peptides were only shown once. […] With some other substances, there were problems in the production, and thus only small amounts were available, and it was not possible to test the substances in all the assays (#12, 14, 17, 35 and #48). […] As could be seen from the figures, the standard deviations, i.e., the fluctuations between the independent experiments, are to some extent quite large. These fluctuations can be attributed to stability problems. These peptides are the peptides that are preferred within the scope of the invention.

[2] = tested on: cortical neurons that are obtained from chicken embryos; experiment: Chronic disruption of the calcium metabolism by ionomycin, neuron viability by MTT; type: cell-based; settings: ionomycin 10 μM, 24 hours
Protocol: It is common to these biological test systems that cortical neurons that are obtained from chicken embryos are cultivated in culture plates for eight days and then are exposed to a specific noxa (Pettmann et al., Nature 281 (5730): 378-80 [1979]).
To this end, a one-day-old, fertilized hen's egg is incubated for eight days at +12 +/− 0.1° C. and 80 +/− 5% atmospheric humidity. On the embryonal day 0, the eggs are transferred into an incubator and incubated up to the embryonal day 8 at 38 +/− 0.5° C. and 55 +/− 5%. After the brains are removed, the cortices are isolated, homogenized, and neurons are taken into primary culture (culture conditions: Dulbecco's Modified Eagle's Medium, 20% v/v fetal calf serum, 0.01% gentamicin, 1 g/l of glucose, 2 mmol of L-glutamine, +37° C., 5% CO2 and 95% atmospheric humidity). […] After the end of the specified stress period, the proportion of the still living neurons is determined with a metabolic colorimetric assay (the reaction of the yellow chromophore MTT to a blue formazan product is carried out only by living cells).
It is expected that in the case of various neurodegenerative diseases, chronic calcium overloading occurs because of metabolic malfunctions, which ultimately produces cell death via the activation of various enzyme systems. […]

[3] = tested on: amyloid-beta peptides (β-amyloid 25-35) / nerve cell cultures; experiment: Amyloid-beta aggregation assay (peptide added to fresh amyloid-beta solution, effect on nerve cell cultures); type: cell-based, chicken; settings: for AβP reagg. (diff vs C): difference vs control, only one round of testing
Protocol: Beta-Amyloid peptides represent, in aggregated form, a potent neurotoxin whose addition to the nerve cell cultures results in a quick and progressive cell death. Since beta-amyloid peptides constitute an essential role in the pathogenesis of Alzheimer's disease, this model can be considered especially relevant.
This biological test is a process for testing anti-aggregatory substance potential that is specially developed for this project. The newly synthesized peptides are added directly to a fresh solution of amyloid-beta peptides to prevent the formation of neurotoxic aggregates. The effect that aggregates that still develop have on growth and survival of nerve cell cultures is the measurement parameter.

[4] = tested on: cortical neurons that are obtained from chicken embryos; experiment: Serum-withdrawal assay (2% assay), neuron viability by MTT; type: cell-based
Protocol: This simulates the disruptions in the stimulation of neurons with nerve growth factors that are assumed to be one of the possible causes of neurodegenerative diseases. The effectiveness of the new peptides in preventing cell death was measured.

Row | Compound | effectiveness across the screening assays (in words) [1] | Active in: (number of assays) [1] | other results
1 | CSCC[C@H](NC(=O)[C@H](Cc1ccccc1)NC(=O)[C@@H](NC(=O)[C@@H](N)CC(=O)O)C(C)C)C(=O)O [BH#33, DVFM] (H-DVFM-OH; N-terminus and C-terminus assumed) | effective in only one screening assay |  | 
2 | CC(C)[C@H](NC(=O)[C@@H](N)CC(=O)O)C(=O)N[C@@H](Cc1ccccc1)C(=O)O [BH#34, DVF] (H-Asp-Val-Phe-OH) |  |  | increase in cell vitality to [2]: about 150%; AβP reagg. (diff vs C) [3]: 19%
3 | Ac-SMAKEGV [BH#8, SMAKEGV] |  | 5 of 7 | action in models of pathological processes of neurodegenerative diseases (in words) [1]: excellent action; increase in cell vitality to [2]: about 150%
4 | DVFMK [BH#32] | not effective in any assay |  | 
5 | DVFMKGL [BH#30, DVFMKGL] | effective in only one screening assay |  | 
6 | DVFMKGLSM [BH#28, DVFMKGLSM] |  | 4 of 7 | 
7 | DVFMKGLSMA [BH#27, DVFMKGLSMA] |  | 4 of 7 | 
8 | DVFMKGLSMAK [BH#26] |  | 2 of 7 | increase of neuronal vitality by ([3]; β-amyloid 25-35, peptide added to fresh amyloid solution): 74%
9 | GLS [BH#41] | not effective in any assay |  | 
10 | GLSMA [BH#39] | effective in only one screening assay |  | 
11 | GLSMAKE [BH#37, GLSMAKE] |  |  | effects over the effects of the control (=100%) [4]: 150%
12 | LSMAK [BH#46, LSMAK] |  | 2 of 7 | action in models of pathological processes of neurodegenerative diseases (in words) [1]: excellent action
13 | LSMAKE [BH#45, LSMAKE] | effective in only one screening assay |  | 
14 | LSMAKEGV [BH#7, LSMAKEGV] |  |  | effects over the effects of the control (=100%) [4]: approximately 450%
15 | MDVFMK [BH#20, MDVFMK] | effective in only one screening assay |  | 
16 | MDVFMKG [BH#19, MDVFMKG] |  |  | AβP reagg. (diff vs C) [3]: 20%
17 | MDVFMKGL [BH#18] | not effective in any assay |  | 
18 | MDVFMKGLSM [BH#16, MDVFMKGLSM] |  | 4 of 7 | effects over the effects of the control (=100%) [4]: 150%
